Experimental data from ChEMBL document CHEMBL1857833, “Screening and optimization of specific chemical series against human African Trypanosomiasis (HAT)”.
Values after ≈ are worked out from the molar mass of the structure shown.

How the values were obtained:
Trypanosoma brucei = assay: DNDI: Inhibition of Human African Trypanosomiasis, SBRI 427, in vitro; type: functional, organism-based; conditions: Trypanosoma brucei, SBRI 427; read-out: IC50
[1] = DNDI: Cytotoxicity against L929 mouse fibroblasts, 72 hour.; type: toxicity, cell-based; conditions: mouse, L929 mouse fibroblasts
[2] = DNDI: Cytotoxicity against L929 mouse fibroblasts, CYTO-SP, 24 hour; type: toxicity, cell-based; conditions: mouse, L929 mouse fibroblasts

With O=c1cc(-c2ccccc2)[nH]c2cc(-c3ccc(F)cc3)nn12 the IC50 (Trypanosoma brucei) was > 5 µg/mL and the IC50 at 72 h [1] was 10 µg/mL (≈ 32.8 µM).

Molecule CN(C)CCCNc1cc(-c2ccccc2)nc2cc(-c3cccc(F)c3)nn12 has an IC50 (Trypanosoma brucei) of 1.13 µg/mL (≈ 2.9 µM) and an IC50 at 72 h [1] of 2.28 µg/mL (≈ 5.85 µM).

For Cc1cc2[nH]c(-c3ccccc3)cc(=O)n2n1, the IC50 (Trypanosoma brucei) was > 5 µg/mL and the IC50 at 72 h [1] was > 10 µg/mL.

In the case of CC(C)(C)OC(=O)N1CCC(Nc2cc(-c3ccccc3)nc3cc(-c4ccc(F)cc4)nn23)CC1, the IC50 (Trypanosoma brucei) was > 5 µg/mL and the IC50 at 72 h [1] was > 10 µg/mL.

In the case of COc1cc(C)ccc1Oc1nc(C)ccc1/C(=N/O)NCC1CC1, the IC50 at 24 h [2] was > 50 µg/mL.

With CCN(CC)CCCNc1cc(C)nc2cc(-c3cccc(F)c3)nn12 the IC50 (Trypanosoma brucei) was > 5 µg/mL and the IC50 at 72 h [1] was > 10 µg/mL.

With Fc1ccc(Oc2nc(Cl)nc3ccsc23)cc1 the IC50 (Trypanosoma brucei) was > 5 µg/mL and the IC50 at 72 h [1] was > 10 µg/mL.

Work on Cc1ccc(/C(=N/O)NCC(C)(C)C)c(Oc2ccc3ccccc3c2)n1 yielded an IC50 at 24 h [2] of 34 µg/mL (≈ 93.5 µM).

Work on Fc1ccc(-c2cc3nc(-c4ccccc4)cc(NCCCn4ccnc4)n3n2)cc1 yielded an IC50 (Trypanosoma brucei) of 4.04 µg/mL (≈ 9.79 µM) and an IC50 at 72 h [1] of 7.66 µg/mL (≈ 18.6 µM).

For C/C(O)=C1\C(=O)NC(COCc2ccccc2)C1=O (configuration not stated), the IC50 (Trypanosoma brucei) was > 5 µg/mL and the IC50 at 72 h [1] was > 10 µg/mL.

For CC(C)(C)OC(=O)N1CCN(c2cc(-c3ccccc3)nc3cc(-c4ccc(F)cc4)nn23)CC1, the IC50 (Trypanosoma brucei) was > 5 µg/mL and the IC50 at 72 h [1] was > 10 µg/mL.

In the case of CCC(CC)N/C(=N\O)c1ccc(C)nc1Oc1ccc(C)cc1OC, the IC50 at 24 h [2] was > 50 µg/mL.

With Fc1cccc(-c2cc3nc(-c4ccccc4)cc(NCCCn4ccnc4)n3n2)c1 the IC50 (Trypanosoma brucei) was 4.3 µg/mL (≈ 10.4 µM) and the IC50 at 72 h [1] was 5.91 µg/mL (≈ 14.3 µM).

Molecule NCCCNc1cc(-c2ccccc2)nc2cc(-c3ccc(F)cc3)nn12 has an IC50 (Trypanosoma brucei) of 0.554 µg/mL (≈ 1.53 µM) and an IC50 at 72 h [1] of 0.76 µg/mL (≈ 2.1 µM).

With Cc1cc(NCCN2CCCC2)n2nc(-c3cccc(F)c3)cc2n1 the IC50 (Trypanosoma brucei) was > 5 µg/mL and the IC50 at 72 h [1] was > 10 µg/mL.

With CCCCCC(C)NCc1coc(-c2ccc3c(c2)OCO3)n1 (configuration not stated) the IC50 (Trypanosoma brucei) was 3.61 µg/mL (≈ 11.4 µM) and the IC50 at 72 h [1] was 10 µg/mL (≈ 31.6 µM).

In the case of Cc1cc(NCC(C)(C)CN(C)C)n2nc(-c3cccc(F)c3)cc2n1, the IC50 (Trypanosoma brucei) was > 5 µg/mL and the IC50 at 72 h [1] was 9.64 µg/mL (≈ 27.1 µM).

With CCOc1ccccc1CN/C(=N\O)c1cccnc1Oc1ccccc1SC the IC50 at 24 h [2] was > 50 µg/mL.

In the case of CCCCCCC/C(O)=C1\C(=O)NC(CC(C)C)C1=O (configuration not stated), the IC50 (Trypanosoma brucei) was > 5 µg/mL and the IC50 at 72 h [1] was > 10 µg/mL.

For Cc1cc(NCCN2CCOCC2)n2nc(-c3cccc(F)c3)cc2n1, the IC50 (Trypanosoma brucei) was > 5 µg/mL and the IC50 at 72 h [1] was > 10 µg/mL.

With O=C1CCCN1CCCNc1cc(-c2ccccc2)nc2cc(-c3cccc(F)c3)nn12 the IC50 (Trypanosoma brucei) was > 5 µg/mL and the IC50 at 72 h [1] was > 10 µg/mL.

For Cc1cc(NCCCN(C)C)n2nc(-c3cccc(F)c3)cc2n1, the IC50 (Trypanosoma brucei) was > 5 µg/mL and the IC50 at 72 h [1] was > 10 µg/mL.

For C[N+]1(C)CCN(c2cc(-c3ccccc3)nc3cc(-c4ccc(F)cc4)nn23)CC1, the IC50 (Trypanosoma brucei) was > 5 µg/mL and the IC50 at 72 h [1] was > 10 µg/mL.

With Cc1cc(NCCCN2CCCC2)n2nc(-c3cccc(F)c3)cc2n1 the IC50 (Trypanosoma brucei) was > 5 µg/mL and the IC50 at 72 h [1] was > 10 µg/mL.

In the case of CCCCCCC/C(O)=C1/C(=O)CN(C)C1=O, the IC50 (Trypanosoma brucei) was > 5 µg/mL and the IC50 at 72 h [1] was > 10 µg/mL.

In the case of CC(C)(C)COc1ncccc1/C(=N/O)N1CCCc2ccccc21, the IC50 at 24 h [2] was 26 µg/mL (≈ 76.6 µM).

For COC(=O)c1sccc1NC(N)=O, the IC50 (Trypanosoma brucei) was > 5 µg/mL and the IC50 at 72 h [1] was > 10 µg/mL.

In the case of Cc1cc(NCCN2CCCCC2)n2nc(-c3cccc(F)c3)cc2n1, the IC50 (Trypanosoma brucei) was > 5 µg/mL and the IC50 at 72 h [1] was > 10 µg/mL.

With Cc1ccc(/C(=N/O)NCC(C)(C)C)c(Oc2cc(Cl)ccc2Cl)n1 the IC50 at 24 h [2] was 27 µg/mL (≈ 70.6 µM).

In the case of O=c1[nH]c(=O)c2sccc2[nH]1, the IC50 (Trypanosoma brucei) was > 5 µg/mL and the IC50 at 72 h [1] was > 10 µg/mL.

With Clc1nc(Oc2cccc3ccccc23)c2sccc2n1 the IC50 (Trypanosoma brucei) was > 5 µg/mL and the IC50 at 72 h [1] was 2.52 µg/mL (≈ 8.06 µM).

In the case of CN(C)CCCNc1cc(-c2ccccc2)nc2cc(-c3ccc(F)cc3)nn12, the IC50 (Trypanosoma brucei) was 1.1 µg/mL (≈ 2.82 µM) and the IC50 at 72 h [1] was 2.57 µg/mL (≈ 6.6 µM).

With O=c1cc(-c2ccccc2)[nH]c2cc(-c3cccc(F)c3)nn12 the IC50 (Trypanosoma brucei) was > 5 µg/mL and the IC50 at 72 h [1] was 4.88 µg/mL (≈ 16 µM).

With Brc1nn2ccnc2s1 the IC50 (Trypanosoma brucei) was > 5 µg/mL and the IC50 at 72 h [1] was > 10 µg/mL.

For Fc1ccc(-c2cc3nc(-c4ccccc4)cc(NCCCN4CCOCC4)n3n2)cc1, the IC50 (Trypanosoma brucei) was > 5 µg/mL and the IC50 at 72 h [1] was > 10 µg/mL.

Fc1ccc(-c2cc3nc(-c4ccccc4)cc(NCCCN4CCCC4)n3n2)cc1 gave an IC50 (Trypanosoma brucei) of 3.65 µg/mL (≈ 8.78 µM) and an IC50 at 72 h [1] of 6.92 µg/mL (≈ 16.7 µM).

For Fc1ccc(-c2cc3nc(-c4ccccc4)cc(NCCN4CCOCC4)n3n2)cc1, the IC50 (Trypanosoma brucei) was > 5 µg/mL and the IC50 at 72 h [1] was > 10 µg/mL.

With COc1cccc(-c2nc(CNCCC3CCCN3C)c(C)o2)c1 (configuration not stated) the IC50 (Trypanosoma brucei) was 2.2 µg/mL (≈ 6.68 µM) and the IC50 at 72 h [1] was > 10 µg/mL.

Molecule CCN(CC)CCCNc1cc(-c2ccccc2)nc2cc(-c3cccc(F)c3)nn12 has an IC50 (Trypanosoma brucei) of 1.05 µg/mL (≈ 2.51 µM) and an IC50 at 72 h [1] of 2.51 µg/mL (≈ 6.01 µM).

With Fc1ccc(-c2cc3nc(-c4ccccc4)cc(NCCN4CCCC4)n3n2)cc1 the IC50 (Trypanosoma brucei) was 1.68 µg/mL (≈ 4.18 µM) and the IC50 at 72 h [1] was 4.94 µg/mL (≈ 12.3 µM).

For CN(C)CCNc1cc(-c2ccccc2)nc2cc(-c3cccc(F)c3)nn12, the IC50 (Trypanosoma brucei) was 2.07 µg/mL (≈ 5.51 µM) and the IC50 at 72 h [1] was 1.78 µg/mL (≈ 4.74 µM).

In the case of CCCCCC(C)NCc1nc(-c2ccc(C)cc2)oc1C (configuration not stated), the IC50 (Trypanosoma brucei) was 1.41 µg/mL (≈ 4.69 µM) and the IC50 at 72 h [1] was > 10 µg/mL.

In the case of CCCCCC(C)NCc1nc(-c2ccc(OC)cc2)oc1C (configuration not stated), the IC50 (Trypanosoma brucei) was 1.49 µg/mL (≈ 4.71 µM) and the IC50 at 72 h [1] was > 10 µg/mL.

With Cc1cc(NCCCN2CCCC2=O)n2nc(-c3cccc(F)c3)cc2n1 the IC50 (Trypanosoma brucei) was > 5 µg/mL and the IC50 at 72 h [1] was > 10 µg/mL.

In the case of CC(C)(C)c1cc(=O)n2nc(-c3ccc(F)cc3)cc2[nH]1, the IC50 (Trypanosoma brucei) was > 5 µg/mL and the IC50 at 72 h [1] was > 10 µg/mL.

In the case of CC(C)(C)OC(=O)N1CCN(c2cc(C(C)(C)C)nc3cc(-c4ccc(F)cc4)nn23)CC1, the IC50 (Trypanosoma brucei) was > 5 µg/mL and the IC50 at 72 h [1] was > 10 µg/mL.

In the case of COc1cc(C)ccc1Oc1nc(C)ccc1/C(=N/O)NCC(C)C, the IC50 at 24 h [2] was > 50 µg/mL.

In the case of Fc1cccc(-c2cc3nc(-c4ccccc4)cc(NCCN4CCOCC4)n3n2)c1, the IC50 (Trypanosoma brucei) was > 5 µg/mL and the IC50 at 72 h [1] was > 10 µg/mL.

In the case of Cc1oc(-c2ccccc2F)nc1CNCCC1CCCN1C (configuration not stated), the IC50 (Trypanosoma brucei) was > 5 µg/mL and the IC50 at 72 h [1] was > 10 µg/mL.

In the case of Cc1cc(N2CCN(C(=O)OC(C)(C)C)CC2)n2nc(-c3cccc(F)c3)cc2n1, the IC50 (Trypanosoma brucei) was > 5 µg/mL and the IC50 at 72 h [1] was > 10 µg/mL.

For Fc1cccc(-c2cc3nc(-c4ccccc4)cc(NCCN4CCCC4)n3n2)c1, the IC50 (Trypanosoma brucei) was 2.22 µg/mL (≈ 5.53 µM) and the IC50 at 72 h [1] was 1.54 µg/mL (≈ 3.84 µM).

With CN(C)CC(C)(C)CNc1cc(-c2ccccc2)nc2cc(-c3ccc(F)cc3)nn12 the IC50 (Trypanosoma brucei) was > 5 µg/mL and the IC50 at 72 h [1] was > 10 µg/mL.

With COc1ccc(-c2cc3[nH]c(-c4ccccc4)cc(=O)n3n2)cc1 the IC50 (Trypanosoma brucei) was > 5 µg/mL and the IC50 at 72 h [1] was > 10 µg/mL.

With CC(C)(C)OC(=O)N1CCC(Nc2cc(-c3ccccc3)nc3cc(-c4ccc(F)cc4)nn23)C1 (configuration not stated) the IC50 (Trypanosoma brucei) was > 5 µg/mL and the IC50 at 72 h [1] was > 10 µg/mL.

With CCCCCC(C)NCc1nc(-c2cccc(OC)c2)oc1C (configuration not stated) the IC50 (Trypanosoma brucei) was 1.54 µg/mL (≈ 4.87 µM) and the IC50 at 72 h [1] was > 10 µg/mL.

With CCCCCC(C)NCc1nc(-c2cccc(C)c2)oc1C (configuration not stated) the IC50 (Trypanosoma brucei) was 2.16 µg/mL (≈ 7.19 µM) and the IC50 at 72 h [1] was > 10 µg/mL.

For CN(C)CC(C)(C)CNc1cc(-c2ccccc2)nc2cc(-c3cccc(F)c3)nn12, the IC50 (Trypanosoma brucei) was > 5 µg/mL and the IC50 at 72 h [1] was > 10 µg/mL.

For CCCCCC(C)NCc1nc(-c2ccccc2F)oc1C (configuration not stated), the IC50 (Trypanosoma brucei) was 2.71 µg/mL (≈ 8.9 µM) and the IC50 at 72 h [1] was 8.59 µg/mL (≈ 28.2 µM).

In the case of Fc1cccc(-c2cc3nc(-c4ccccc4)cc(NCCN4CCCCC4)n3n2)c1, the IC50 (Trypanosoma brucei) was 3.82 µg/mL (≈ 9.19 µM) and the IC50 at 72 h [1] was 9.91 µg/mL (≈ 23.8 µM).

Cc1cc(Oc2ccc(/C(=N/O)NCC3CC3)cn2)cc(C(C)C)c1 gave an IC50 at 24 h [2] of 27 µg/mL (≈ 79.5 µM).

With Cc1cc(=O)n2nc(-c3cccc(F)c3)cc2[nH]1 the IC50 (Trypanosoma brucei) was > 5 µg/mL and the IC50 at 72 h [1] was > 10 µg/mL.

For COc1ccc(-c2nc(CNCCC3CCCN3C)c(C)o2)cc1 (configuration not stated), the IC50 (Trypanosoma brucei) was 2.44 µg/mL (≈ 7.41 µM) and the IC50 at 72 h [1] was > 10 µg/mL.

Work on NCCCNc1cc(-c2ccccc2)nc2cc(-c3cccc(F)c3)nn12 yielded an IC50 (Trypanosoma brucei) of 0.535 µg/mL (≈ 1.48 µM) and an IC50 at 72 h [1] of 1.57 µg/mL (≈ 4.34 µM).

With Fc1ccc(-c2cc3nc(-c4ccccc4)cc(NCCN4CCCCC4)n3n2)cc1 the IC50 (Trypanosoma brucei) was > 5 µg/mL and the IC50 at 72 h [1] was > 10 µg/mL.

For Cc1cc(NC2CCN(C(=O)OC(C)(C)C)C2)n2nc(-c3cccc(F)c3)cc2n1 (configuration not stated), the IC50 (Trypanosoma brucei) was > 5 µg/mL and the IC50 at 72 h [1] was > 10 µg/mL.
